Results published in US8889840B2, “Vascular leakage inhibitor” (Industry-Academic Cooperation Foundation, Yonsei University, priority 2009, dated 2014).
Entries after “also recorded” stand apart in the source; their conditions may differ.

Assays:
HRECs = experiment: Stability of tight junctions (TJs) at cell-cell contacts in VEGF-treated HRECs, anti-occludin immunostaining; format: cell-based, human; details: 10 μg/mL 1 hour, then 20 ng/mL VEGF 1 hour
Method: In FIG. 8a, confluent HRECs were pretreated with Sac0601 (panel A in FIG. 8a) or Sac0504 (panel B in FIG. 8a) for 60 minutes before treating with 20 ng/ml. VEGF (1 hr). The cells were then stained with occludin antibody.
(§1) Confluent HRECs were treated with 10 μg/mL Sac0601 (FIG. 8a, panel A) or Sac0504 (FIG. 8a, panel B) for 1 hour and then with 20 ng/mL. VEGF for 1 hour. Subsequently, the cells were fixed at room temperature for 20 minutes with 4% paraformaldehyde and permeabilized with 0:1% Triton X-100/PBS. Then, the cells were incubated in PBS blocking solution containing 5% normal goat serum and 0.05% Tween-20. The cells were then reacted with anti-occludin antibody (Zymed Laboratories Inc.). The result was visualized with fluorescein-conjugated anti-mouse antibody (Vector Lab.). Also, western blotting was conducted for the cell lysate. The cell lysate was fractionated with SDS-PAGE and then transferred to polyvinyl difluoride membrane. The blocked membrane was reacted with anti-occludin antibody (Zymed Laboratories Inc.) and the immune response band was visualized with the chemiluminescence reagent obtained from Amersham Biosciences, Inc.

occludin = experiment: Occludin western blotting of HREC lysate; format: cell-based, human; details: HRECs, pretreatment 60 minutes, then 20 ng/mL VEGF 1 hour
Method: In FIG. 8b, confluent HRECs were pretreated with Sac0601 (10 μg/mL) for 60 minutes before treating with 20 ng/mL VEGF (1 hr). Then, cell lysate was subjected to western blotting using anti-occludin antibody.
as §1

HUVECs = experiment: VEGF-induced actin stress fibers in HUVECs, rhodamine phalloidin staining; format: cell-based, human; details: 10 μg/mL pretreatment 1 hour, 20 ng/mL VEGF
Method: Confluent HUVECs were pretreated with the compounds (10 μg/mL) for 60 minutes before treating with 20 ng/mL VEGF (1 hr). The cells were then stained with rhodamine phalloidin.
It is known that the change in the actin structure of the cytoskeleton is closely related with the permeability of vascular endothelial cells. Increased permeability of vascular endothelial cells leads to increased formation of actin stress fibers and decrease of cortical actin ring structures. Based on this, the ability of inhibiting vascular endothelial permeability of the synthesized Rk1 derivatives was screened. Confluent HUVECs were pretreated with the synthesized compounds (10 μg/mL) for 1 hour before treating with 20 ng/mL VEGF (Upstate Biotechnology). Subsequently, the cells were fixed with 4% paraformaldehyde for 20 minutes at room temperature and washed 3 times with PBS (pH 7.4). Then, the cells were permeabilized with 0.1% Triton X-100/PBS and reacted with 0.1 mg/mL rhodamine phalloidin (Molecular Probes) for 1 hour. Then, the cells were observed under a fluorescence microscope (Olympus).

[1] = test system: human retinal endothelial cells (HRECs); experiment: Serum depletion-induced apoptosis of HRECs, MTT assay and cell morphology; format: cell-based; details: serum-free medium, 0.1-10 μg/mL
Method: HRECs (3×10^4 cells/well) were seeded on a 24-well plate in M199 medium containing 20% fetal bovine serum. The next day, the cells were transferred to a medium containing […] Sac0601 (FIG. 4a) or 0.1-10 μg/mL Sac0504 (FIG. 4b). Cell viability was determined by MTT assay 48 hours later. FIGS. 5a-5c show the result of observing cell morphologies.
Human umbilical vein endothelial cells (HUVECs) and human retinal endothelial cells (HRECs) purchased from Cell Systems (USA) were seeded on a 100-mm culture dish in M199 medium (Life Technologies, USA) containing 20% (w/v) fetal bovine serum (FBS, HyClone, Canada), 100 units/mL penicillin (Invitrogen, USA), 100 μg/mL streptomycin (invitrogen, USA), 3 ng/mL basic fibroblast growth factor (bFGF, Upstate Biotechnology, USA) and 5 units/mL heparin and cultured in a 5% CO2 incubator at 37° C.
Also, HRECs were treated with the compounds synthesized in Synthesis Example 5 and MIT assay was performed 48 hours later in the same manner as described above.
Also, the acid compound wherein the methyl ester formed by the introduction of the ester group was hydrolyzed was synthesized to provide improved water solubility and activity. MYT assay was performed for the compounds synthesized in Synthesis Example 6 in the same manner as described above 48 hours after treatment.
Their ability of inhibiting apoptosis was confirmed again for HRECs. HRECs (3×10^4 cells/well) were seeded on a 24-well plate in M199 medium (1 mL) containing 20% fetal bovine serum, Next day, the cells were transferred to serum-free M199 medium containing 0.1-10 μg/ml. Sac060.1 (FIG. 4a) or 0.1-10 μg; mL Sac0504 (FIG. 4b). Cell viability was determined by MTF assay in the same manner as in Test Example 1.
Their ability of inhibiting apoptosis was confirmed again for HRECs.

[2] = test system: diabetic mouse (DM) model; experiment: Retinal vascular permeability in diabetic mouse (DM) model, FITC-dextran; format: in vivo, C57/BL6 mouse; details: streptozotocin diabetic mouse, 10 μg into the vitreous body, 24 hours
Method: 10 μg of Sac0601 or 10 μg of Sac0504 was injected into the vitreous body of one eye of a diabetic mouse. 24 hours after the injection, 100 μL of FITC-dextran (30 mg/mL in filtered […]) was injected into the left ventricle. Then, the retina was observed under an optical microscope (FIG. 11a) and the fluorescence intensity was quantified (FIG. 11b).
For in vivo analysis of the effect of the synthesized Rk1 derivatives on increased vascular permeability in diabetic retinopathy, a diabetic mouse (DM) model was made by injecting streptozotocin to C57/BL6 mouse. Sac 0601 or Sac 0504 (10 μg) was injected into the vitreous body of the mouse. 24 hours later, 40-kDa FITC-dextran (30 mg/mL in PBS, Sigma) was injected into the left ventricle. After waiting for about 2 minutes for circulation of the tracer, the eyes were taken out and fixed immediately in 4% PFA. Then, the retina was taken out and observed under an optical microscope.

C57/BL6 mouse = experiment: Vascular leakage induced by VEGF in mouse retina, FITC-dextran; format: in vivo; details: VEGF 50 ng and compound 10 μg into the vitreous body, 24 hours
Method: VEGF (50 ng) and Sac0601 (10 μg) were injected into the vitreous body of C57/BL6 mouse. An excipient (DMSO) was injected into the other eye. 24 hours after the injection, 100 μL FITC-dextran (30 mg/mL in PBS, Sigma) was injected into the left ventricle. After waiting for about 2 minutes for circulation of the tracer, the eyes were taken out and fixed immediately in 4% PFA, Then, the retina was taken out and observed under an optical microscope.

CC(=O)OCC1OC(OC2CCC3(C)C(=CCC4C3CCC3(C)C(C(C)CCCC(C)C)CCC43)C2)C=CC1OC(C)=O (centres unmarked) [Sac0601]
redistribution of TJs into the cytoplasm or destabilizing at the cell membrane induced by VEGF (HRECs): could be inhibited | stability of TJs between cells (HRECs): more effective in enhancing the stability of TJs than Sac0504 | occludin (western blotting) (occludin): results in decrease of occludin | cortical actin ring structure (HUVECs): increased the cortical actin ring structure | formation of actin stress fibers induced by VEGF (HUVECs): inhibited the formation of actin stress fibers induced by VEGF | ability of protecting retinal vascular endothelial cells from apoptosis induced by the removal of serum (MTT) [1]: have the ability of protecting the retinal vascular endothelial cells from apoptosis | retinal vascular permeability induced in the DM [2]: completely inhibits; also recorded: very effectively | vascular leakage induced by VEGF (C57/BL6 mouse): greatly decreases

CC(C)CCC[C@@H](C)[C@H]1CC[C@H]2[C@@H]3CC=C4C[C@@H](OC5CCCCO5)CC[C@]4(C)[C@H]3CC[C@]12C (some centres unmarked) [Sac0504]
redistribution of TJs into the cytoplasm or destabilizing at the cell membrane induced by VEGF (HRECs): could be inhibited | stability of TJs between cells (HRECs): enhanced | cortical actin ring structure (HUVECs): increased the cortical actin ring structure | formation of actin stress fibers induced by VEGF (HUVECs): inhibited the formation of actin stress fibers induced by VEGF | ability of protecting retinal vascular endothelial cells from apoptosis induced by the removal of serum (MTT) [1]: have the ability of protecting the retinal vascular endothelial cells from apoptosis | retinal vascular permeability induced in the DM [2]: partially inhibits; also recorded: only limitedly
